Results reported in patent publication US11981686B2, “Urea compound having substituent” (DAIICHI SANKYO COMPANY, LIMITED, priority 2019, dated 2024).

Biological target: SIRT6 enzyme (Homo sapiens, UniProt Q8N6T7)
Assay: Measurement of deacetylation activity (SIRT6, AlphaLISA, H3K9(Ac) peptide)
Assay type: biochemical
Conditions: SIRT6 25 ng/mL, H3K9(Ac) biotin peptide 2 nM, NAD 10 μM, room temperature 30 minutes, duplicate
Outline: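 Activation read as EC150, the concentration giving 150% activity relative to enzyme/no-enzyme DMSO controls, via variable-slope fit. Deacetylation of 2 nM biotinylated H3K9(Ac) peptide with 10 μM NAD+ by 25 ng/mL SIRT6 ran 30 min at room temperature, pH 8.0, then AlphaLISA detection of unmodified H3K9.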

Chain of SIRT6 enzyme (Q8N6T7 whole entry, species assumed): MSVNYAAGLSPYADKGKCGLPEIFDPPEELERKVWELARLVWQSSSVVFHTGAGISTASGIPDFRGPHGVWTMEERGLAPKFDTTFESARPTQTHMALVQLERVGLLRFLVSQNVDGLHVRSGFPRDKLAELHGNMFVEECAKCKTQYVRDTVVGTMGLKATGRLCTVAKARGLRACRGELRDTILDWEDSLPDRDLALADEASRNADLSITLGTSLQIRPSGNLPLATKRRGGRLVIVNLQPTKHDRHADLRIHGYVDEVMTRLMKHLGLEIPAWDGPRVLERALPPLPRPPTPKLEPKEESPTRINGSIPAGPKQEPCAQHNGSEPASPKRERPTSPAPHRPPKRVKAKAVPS

| Compound | EC150 (the concentration of the compound showing a relative enzyme activity of 150%) |
| --- | --- |
| CNC(=O)Nc1nc2c(s1)[C@@H]1COC[C@H](C2)N1c1nc2cc(C)ccc2o1 [Example 49, N-methyl-N′-[(4S,8S)-10-(5-methyl-1,3-benzoxazol-2-yl)-4,7,8,9-tetrahydro-5H-4,8-epiminooxocino[5,4-d][1,3]thiazol-2-yl]urea] | 1.5 μm |
| O=C(Nc1nc2c(s1)[C@@H]1COC[C@H](C2)N1c1ncc(-c2cccc(C(F)F)c2)o1)N[C@H]1C[C@H](O)C1 [Example 166, N-(10-{5-[3-(difluoromethyl)phenyl]-1,3-oxazol-2-yl}-4,7,8,9-tetrahydro-5H-4,8-epiminooxocino[5,4-d][1,3]thiazol-2-yl)-N′-[(1r,3r)-3-hydroxycyclobutyl]urea] | 0.21 μm |
| O=C(NC[C@H]1COCCO1)Nc1nc2c(s1)[C@@H]1COC[C@H](C2)N1c1nc(-c2ccc(F)cc2)no1 [Example 29, N-{[(2S)-1,4-dioxan-2-yl]methyl}-N′-{(4S,8S)-10-[3-(4-fluorophenyl)-1,2,4-oxadiazol-5-yl]-4,7,8,9-tetrahydro-5H-4,8-epiminooxocino[5,4-d][1,3]thiazol-2-yl}urea] | 0.69 μm |
| C[C@H](CO)NC(=O)Nc1nc2c(s1)[C@@H]1COC[C@H](C2)N1c1cc(-c2ccc(F)cc2)on1 [Example 154, N-{(4S,8S)-10-[5-(4-fluorophenyl)-1,2-oxazol-3-yl]-4,7,8,9-tetrahydro-5H-4,8-epiminooxocino[5,4-d][1,3]thiazol-2-yl}-N′-[(2R)-1-hydroxypropan-2-yl]urea] | 0.82 μm |
| O=C(Nc1nc2c(s1)[C@@H]1COC[C@H](C2)N1c1cc(C2CCC(F)(F)CC2)on1)N[C@@H]1CCOC1 [Example 157, N-{(4S,8S)-10-[5-(4,4-difluorocyclohexyl)-1,2-oxazol-3-yl]-4,7,8,9-tetrahydro-5H-4,8-epiminooxocino[5,4-d][1,3]thiazol-2-yl}-N′-[(3R)-oxolan-3-yl]urea] | 4.6 μm |
| COCCCNC(=O)Nc1nc2c(s1)CN(c1nc(C3CCC(F)(F)CC3)no1)CC2 [Example 27, N-{5-[3-(4,4-difluorocyclohexyl)-1,2,4-oxadiazol-5-yl]-4,5,6,7-tetrahydro[1,3]thiazolo[5,4-c]pyridin-2-yl}-N′-(3-methoxypropyl)urea] | 2.1 μm |
| CC(C)(O)CNC(=O)Nc1nc2c(s1)CN(c1nc(C34CC(C(F)F)(C3)C4)no1)CC2 [Example 96, N-(5-{3-[3-(difluoromethyl)bicyclo[1.1.1]pentan-1-yl]-1,2,4-oxadiazol-5-yl}-4,5,6,7-tetrahydro[1,3]thiazolo[5,4-c]pyridin-2-yl)-N′-(2-hydroxy-2-methylpropyl)urea] | 1.6 μm |
| CCOc1cccc(-c2nnc(N3[C@@H]4COC[C@H]3c3sc(NC(=O)NC)nc3C4)o2)c1 [Example 121, N-{(4S,8S)-10-[5-(3-ethoxyphenyl)-1,3,4-oxadiazol-2-yl]-4,7,8,9-tetrahydro-5H-4,8-epiminooxocino[5,4-d][1,3]thiazol-2-yl}-N′-methylurea] | 2.1 μm |
| COc1cc(-c2noc(N3C4COCC3c3sc(NC(=O)N[C@H](C)CO)nc3C4)n2)ccc1F (stereo partly drawn) [Example 83, N-{10-[3-(4-fluoro-3-methoxyphenyl)-1,2,4-oxadiazol-5-yl]-4,7,8,9-tetrahydro-5H-4,8-epiminooxocino[5,4-d][1,3]thiazol-2-yl}-N′-[(2R)-1-hydroxypropan-2-yl]urea] | 0.68 μm |
| O=C(Nc1nc2c(s1)[C@@H]1COC[C@H](C2)N1c1cc(-c2ccc(F)cc2)on1)N[C@@H]1CCOC1 [Example 155] | 0.51 μm |
| O=C(Nc1nc2c(s1)[C@@H]1COC[C@H](C2)N1c1ncc(-c2cccc(OC(F)F)c2)o1)N[C@@H]1CCOC1 [Example 73, N-[(4S,8S)-10-{5-[3-(difluoromethoxy)phenyl]-1,3-oxazol-2-yl}-4,7,8,9-tetrahydro-5H-4,8-epiminooxocino[5,4-d][1,3]thiazol-2-yl]-N′-[(3R)-oxolan-3-yl]urea] | 0.4 μm |
| CCOc1cccc(-c2cnc(N3[C@@H]4COC[C@H]3c3sc(NC(=O)N[C@H](C)CO)nc3C4)o2)n1 [Example 68, N-{(4S,8S)-10-[5-(6-ethoxypyridin-2-yl)-1,3-oxazol-2-yl]-4,7,8,9-tetrahydro-5H-4,8-epiminooxocino[5,4-d][1,3]thiazol-2-yl}-N′-[(2R)-1-hydroxypropan-2-yl]urea] | 1 μm |
| Cc1cc2nc(N3[C@@H]4COC[C@H]3c3sc(NC(=O)NCC(C)(C)O)nc3C4)oc2cc1C#N [Example 51, N-[(4S,8S)-10-(6-cyano-5-methyl-1,3-benzoxazol-2-yl)-4,7,8,9-tetrahydro-5H-4,8-epiminooxocino[5,4-d][1,3]thiazol-2-yl]-N′-(2-hydroxy-2-methylpropyl)urea] | 0.47 μm |
| COc1ccc2oc(N3[C@@H]4COC[C@H]3c3sc(NC(=O)N[C@H](C)CO)nc3C4)nc2c1 [Example 38, N-[(2R)-1-hydroxypropan-2-yl]-N′-[(4S,8S)-10-(5-methoxy-1,3-benzoxazol-2-yl)-4,7,8,9-tetrahydro-5H-4,8-epiminooxocino[5,4-d][1,3]thiazol-2-yl]urea] | 2 μm |
| O=C(Nc1nc2c(s1)[C@@H]1COC[C@H](C2)N1c1cc(-c2ccc(F)cc2)on1)N[C@H]1CC[C@@H](O)CC1 [Example 61, N-{(4S,8S)-10-[5-(4-fluorophenyl)-1,2-oxazol-3-yl]-4,7,8,9-tetrahydro-5H-4,8-epiminooxocino[5,4-d][1,3]thiazol-2-yl}-N′-[(1s,4s)-4-hydroxycyclohexyl]urea] | 1.9 μm |
| CC(C)(O)CNC(=O)Nc1nc2c(s1)[C@@H]1COC[C@H](C2)N1c1ncc(-c2cccc(OC(F)F)c2)o1 [Example 172, N-[(4S,8S)-10-{5-[3-(difluoromethoxy)phenyl]-1,3-oxazol-2-yl}-4,7,8,9-tetrahydro-5H-4,8-epiminooxocino[5,4-d][1,3]thiazol-2-yl]-N′-(2-hydroxy-2-methylpropyl)urea] | 0.83 μm |
| C[C@@H](O)CNC(=O)Nc1nc2c(s1)[C@@H]1COC[C@H](C2)N1c1ncc(-c2cccc(OC(F)F)c2)o1 [Example 171, N-[(4S,8S)-10-{5-[3-(difluoromethoxy)phenyl]-1,3-oxazol-2-yl}-4,7,8,9-tetrahydro-5H-4,8-epiminooxocino[5,4-d][1,3]thiazol-2-yl]-N′-[(2R)-2-hydroxypropyl]urea] | 0.55 μm |
| O=C(Nc1nc2c(s1)CN(c1nc(C3CCC(F)(F)CC3)no1)CC2)N[C@@H]1CCC[C@H]1O [Example 25, N-{5-[3-(4,4-difluorocyclohexyl)-1,2,4-oxadiazol-5-yl]-4,5,6,7-tetrahydro[1,3]thiazolo[5,4-c]pyridin-2-yl}-N′-[(1R,2R)-2-hydroxycyclopentyl]urea] | 0.81 μm |
| C[C@H](O)CNC(=O)Nc1nc2c(s1)[C@@H]1COC[C@H](C2)N1c1ncc(-c2cccc(OC(F)F)n2)o1 [Example 174, N-[(4S,8S)-10-{5-[6-(difluoromethoxy)pyridin-2-yl]-1,3-oxazol-2-yl}-4,7,8,9-tetrahydro-5H-4,8-epiminooxocino[5,4-d][1,3]thiazol-2-yl]-N′-[(2S)-2-hydroxypropyl]urea] | 0.74 μm |
| CCOc1ccc2oc(N3[C@@H]4COC[C@H]3c3sc(NC(=O)NCC(C)(C)O)nc3C4)nc2c1 [Example 40, N-[(4S,8S)-10-(5-ethoxy-1,3-benzoxazol-2-yl)-4,7,8,9-tetrahydro-5H-4,8-epiminooxocino[5,4-d][1,3]thiazol-2-yl]-N′-(2-hydroxy-2-methylpropyl)urea] | 3.1 μm |
| CC(C)(CO)NC(=O)Nc1nc2c(s1)[C@@H]1COC[C@H](C2)N1c1ncc(-c2cccc(C(F)F)c2)o1 [Example 69, N-[(4S,8S)-10-{5-[3-(difluoromethyl)phenyl]-1,3-oxazol-2-yl}-4,7,8,9-tetrahydro-5H-4,8-epiminooxocino[5,4-d][1,3]thiazol-2-yl]-N′-(1-hydroxy-2-methylpropan-2-yl)urea] | 0.59 μm |
| CC(C)(O)CNC(=O)Nc1nc2c(s1)CN(c1nc(C3CCC(F)(F)C3)no1)CC2 (stereo not drawn) [Example 94, N-{5-[3-(3,3-difluorocyclopentyl)-1,2,4-oxadiazol-5-yl]-4,5,6,7-tetrahydro[1,3]thiazolo[5,4-c]pyridin-2-yl}-N′-(2-hydroxy-2-methylpropyl)urea] | 1.6 μm |
| O=C(NCc1nnc[nH]1)Nc1nc2c(s1)CN(c1nc(C3CCC(F)(F)CC3)no1)CC2 [Example 102, N-{5-[3-(4,4-difluorocyclohexyl)-1,2,4-oxadiazol-5-yl]-4,5,6,7-tetrahydro[1,3]thiazolo[5,4-c]pyridin-2-yl}-N′-[(4H-1,2,4-triazol-3-yl)methyl]urea] | 0.33 μm |
| O=C(Nc1nc2c(s1)[C@@H]1COC[C@H](C2)N1c1nc2cc(OC(F)(F)F)ccc2o1)N[C@H]1C[C@H](O)C1 [Example 54, N-[(1r,3S)-3-hydroxycyclobutyl]-N′-[(4S,8S)-10-(5-trifluoromethoxy-1,3-benzoxazol-2-yl)-4,7,8,9-tetrahydro-5H-4,8-epiminooxocino[5,4-d][1,3]thiazol-2-yl]urea] | 0.48 μm |
